One may read the IC50 as the concentration that inhibits the measured activity by half.

This assay has as its target T1, human Autotaxin (ATX) (Homo sapiens, UniProt Q13822).
T1 construct: generate a full length human ENPP2 ORF with or without a 3′-6×His tag; 6xHis (C); made in house; host or cells: FreeStyle 293-F cells (transient transfection), purified from culture supernatant
Briefly: Human ATX enzyme inhibition assay (LPC substrate, choline oxidase/HRP/Amplex Red coupled format). Format: biochemical. To be noted: recombinant hATX 1 nM, 18:1 LPC 30 μM, fluorescence at 90 mins minus 5 mins. The procedure: Human ATX Enzyme Inhibition Assay
To identify inhibitors of the human Autotaxin (ATX) enzyme an in-vitro biochemical profiling assay has been developed using lysophosphatidylcholine (LPC) as substrate and recombinant enzyme. ATX activity is assayed via a coupled enzyme format where choline produced from LPC hydrolysis is converted to hydrogen peroxide by choline oxidase (CO). Hydrogen peroxide is in turn used as a co-substrate by horseradish peroxidase (HRP) to oxidise Amplex Red® and generate the red-fluorescent product, Resorufin.
50 mM Tris-HCl (pH 8.0); 120 mM NaCl; 20 mM CaCl2; 5 mM KCl; 1 mM MgCl2; 0.01% Triton X-100, sterile-filtered and stored at 4° C.
50 mM Tris-HCl (pH 8.0); 150 mM NaCl
human Autotaxin (hATX): 0.97 mg/ml (9.718 μM) Molecular weight 99817. Working solution of 1.5 μM used in this assay.
100 mM 18:1 LPC dissolved in reagent dilution-buffer.
500 U/ml Choline Oxidase in reagent dilution buffer.
2540 U/ml Horseradish Peroxidase, in reagent dilution buffer (10.95 mg/ml).
20 mM Amplex Red (10-Acetyl-3,7-dihydroxy-phenoxazin) in DMSO.
Black, 384-well plate, black with clear bottom, non-treated surface.
Test compounds are received pre-diluted in DMSO as an 11-point concentration-response (0.5 mM highest concentration; 1 in 3.162 dilution). Test compounds are pre-diluted 1:1 (10 μL compound+10 μL assay buffer) in a 96-well conical bottomed plate prior to use.
ATX is diluted to 2.2 nM in assay buffer. Choline oxidase and horseradish peroxidase are diluted to 7.3 U/ml and 14.7 U/ml, respectively. 18:1 LPC and Amplex Red® are diluted to 110 μM and 183.3 μM, respectively (solution protected from light). 2.2 μL of compound pre-dilution or 50% DMSO is added to the reaction plate followed by 25 μL of ATX or assay buffer (negative control). Assay plate is mixed and incubated at room temperature for 10 mins. 15 μL of choline oxidase/horseradish peroxidase is then added. To initiate the reaction 15 μL of LPC 18:1/Amplex Red is added. Assay plate is mixed and incubated at room temperature in the dark. Fluorescence is measured at 5 mins (for background subtraction) and 90 mins.
Final Assay Concentrations:
Horse Radish Peroxidase: 4 U/ml
Fluorescence at 5-minutes is subtracted from the 90-minute end point data and normalized with respect to the positive control. IC50 values are calculated.
Results in the enzymatic ATX inhibition assay are provided for compounds of formula (I).
As to `CC(C)N1Cc2nc(N[C@H]3Cc4cc(Cl)cc(C#N)c4C3)ncc2C1=O` [Example 12, (S)-6-chloro-2-((6-isopropyl-5-oxo-6,7-dihydro-5H-pyrrolo[3,4-d]pyrimidin-2-yl)amino)-2,3-dihydro-1H-indene-4-carbonitrile], the IC50 came to 3 nM. To `CC1(N2Cc3nc(N[C@H]4Cc5cc(Cl)cc(C#N)c5C4)ncc3C2=O)COC1` [Example 3, (S)-6-chloro-2-((6-(3-methyloxetan-3-yl)-5-oxo-6,7-dihydro-5H-pyrrolo[3,4-d]pyrimidin-2-yl)amino)-2,3-dihydro-1H-indene-4-carbonitrile] belongs 5 nM; to `N#Cc1cc(Cl)cc2c1C[C@@H](Nc1ncc3c(n1)CN(C1CC(F)(F)C1)C3=O)C2` [Example 8, (S)-6-chloro-2-((6-(3,3-difluorocyclobutyl)-5-oxo-6,7-dihydro-5H-pyrrolo[3,4-d]pyrimidin-2-yl)amino)-2,3-dihydro-1H-indene-4-carbonitrile], 3 nM; to `COCCN1Cc2nc(N[C@H]3Cc4cc(Cl)cc(C#N)c4C3)ncc2C1=O` [Example 20, (S)-6-chloro-2-((6-(2-methoxyethyl)-5-oxo-6,7-dihydro-5H-pyrrolo[3,4-d]pyrimidin-2-yl)amino)-2,3-dihydro-1H-indene-4-carbonitrile], 5 nM. As for `N#Cc1cc(Cl)cc2c1C[C@@H](Nc1ncc3c(n1)CN(CC1COC1)C3=O)C2` [Example 14, (S)-6-chloro-2-((6-(oxetan-3-ylmethyl)-5-oxo-6,7-dihydro-5H-pyrrolo[3,4-d]pyrimidin-2-yl)amino)-2,3-dihydro-1H-indene-4-carbonitrile], the figure is 3 nM; as for `CC1(N2Cc3nc(N[C@H]4Cc5cc(Cl)cc(C#N)c5C4)ncc3C2=O)CC1` [Example 15, (S)-6-chloro-2-((6-(1-methylcyclopropyl)-5-oxo-6,7-dihydro-5H-pyrrolo[3,4-d]pyrimidin-2-yl)amino)-2,3-dihydro-1H-indene-4-carbonitrile], 2 nM. As for `O=C1c2cnc(NC3Cc4ccc(Cl)cc4C3)nc2CN1C1CC2(C1)CC(F)(F)C2` (centres unmarked) [Example 4, 2-((5-chloro-2,3-dihydro-1H-inden-2-yl)amino)-6-(6,6-difluorospiro[3.3]heptan-2-yl)-6,7-dihydro-5H-pyrrolo[3,4-d]pyrimidin-5-one], the figure is 42 nM. Consider `N#Cc1cc(Cl)cc2c1C[C@@H](Nc1ncc3c(n1)CN(CC1(O)CC1)C3=O)C2` [Example 24, (S)-6-chloro-2-((6-((1-hydroxycyclopropyl)methyl)-5-oxo-6,7-dihydro-5H-pyrrolo[3,4-d]pyrimidin-2-yl)amino)-2,3-dihydro-1H-indene-4-carbonitrile], for which the IC50 was determined as 9 nM. As for `CC(C)(O)CN1Cc2nc(N[C@H]3Cc4cc(Cl)cc(C#N)c4C3)ncc2C1=O` [Example 21, (S)-6-chloro-2-((6-(2-hydroxy-2-methylpropyl)-5-oxo-6,7-dihydro-5H-pyrrolo[3,4-d]pyrimidin-2-yl)amino)-2,3-dihydro-1H-indene-4-carbonitrile], the figure is 5 nM; as for `CCN1Cc2nc(N[C@H]3Cc4cc(Cl)cc(C#N)c4C3)ncc2C1=O` [Example 33, (S)-6-chloro-2-((6-ethyl-5-oxo-6,7-dihydro-5H-pyrrolo[3,4-d]pyrimidin-2-yl)amino)-2,3-dihydro-1H-indene-4-carbonitrile], 2 nM; as for `CC(C)N1CCc2nc(N[C@H]3Cc4cc(Cl)cc(C#N)c4C3)ncc2C1=O` [Example 30, (S)-6-chloro-2-((6-isopropyl-5-oxo-5,6,7,8-tetrahydropyrido[4,3-d]pyrimidin-2-yl)amino)-2,3-dihydro-1H-indene-4-carbonitrile], 2 nM.
